Tested on: LRF (luteinizing hormone releasing factor) induced luteinizing hormone (LH) release
Assay: In vitro LRF antagonist test in rat anterior pituitary cell cultures
Type: cell-based
Description: Nonapeptides of this invention were screened for LRF antagonist activity in vitro using rat anterior pituitary cell cultures as described by Vale et. al. [Endocrinology, 91, 562 (1972)]. The inhibition of LRF (luteinizing hormone releasing factor) induced luteinizing hormone (LH) release into the culture medium is the endpoint in this in vitro bioassay.

Row | Substance | LH released into culture medium (LRF alone, molar conc. 5×10^-10 (saline control 16.22)) | LH released into culture medium (compound molar conc. 1×10^-7, LH released into culture medium, LRF control 5×10^-10) | % LH Release Inhibition (compound molar conc. 1×10^-7, LRF control 5×10^-10) | LH released into culture medium (compound molar conc. 1×10^-8, LH released into culture medium, LRF control 5×10^-10) | % LH Release Inhibition (compound molar conc. 1×10^-8, LRF control 5×10^-10)
1 | LRF: luteinizing hormone releasing factor, formed in the hypothalamus, stimulates the secretion of luteinizing hormone from the anterior pituitary (QHWSYGLRPG; Gonadoliberin-1; UniProt P01148 24-33, looked up) [reference compound] | 80.93 ng/mL |  |  |  | 
2 | N^α -t-butoxycarbonyl-N^im -benzyl-L-histidyl-L-tryptophyl-O-benzyl-L-seryl-O-benzyl-L-tyrosyl-D-phenylalanyl-L-leucyl-N^G -[(4-methylphenyl)sulfonyl]-L-arginyl-L-prolyl-glycinamide |  | 24.91 ng/mL | 87% | 52.47 ng/mL | 44%

— patent US4124577A, “Nonapeptides and methods for their production” (Warner-Lambert, priority 1977, dated 1978)
